Values of other authors, collected in article PMC3026871 (Cancer chemotherapy and pharmacology, 2010).

Molecular target: Aurora A kinase in skin basal epithelial cells (Homo sapiens, UniProt O14965)
Details: subsequent studies, similar times, identical assays; cited from earlier work

Aurora A kinase in skin basal epithelial cells, sequence (O14965 whole entry): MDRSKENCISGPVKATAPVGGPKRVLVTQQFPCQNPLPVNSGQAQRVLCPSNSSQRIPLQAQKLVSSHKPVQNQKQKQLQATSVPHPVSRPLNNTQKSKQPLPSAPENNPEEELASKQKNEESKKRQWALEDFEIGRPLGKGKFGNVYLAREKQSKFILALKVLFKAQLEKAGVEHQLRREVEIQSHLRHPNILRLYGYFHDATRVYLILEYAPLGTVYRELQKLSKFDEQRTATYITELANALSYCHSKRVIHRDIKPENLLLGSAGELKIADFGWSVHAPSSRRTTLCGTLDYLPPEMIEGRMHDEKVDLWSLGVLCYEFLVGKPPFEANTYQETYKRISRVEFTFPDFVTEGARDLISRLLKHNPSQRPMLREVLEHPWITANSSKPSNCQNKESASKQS

Question: With COc1cc(Nc2ncc3c(n2)-c2ccc(Cl)cc2C(c2c(F)cccc2OC)=NC3)ccc1C(=O)O [MLN8237] as the compound, how does the “pharmacodynamic activity in skin biopsies” value read?
Answer: The value was “dose-dependent pharmacodynamic activity in skin biopsies”.
